Test [1] has as its target T1, gastric inhibitory peptide receptor (GIPR) (Homo sapiens, UniProt P48546).
T1 sequence (P48546 22-466): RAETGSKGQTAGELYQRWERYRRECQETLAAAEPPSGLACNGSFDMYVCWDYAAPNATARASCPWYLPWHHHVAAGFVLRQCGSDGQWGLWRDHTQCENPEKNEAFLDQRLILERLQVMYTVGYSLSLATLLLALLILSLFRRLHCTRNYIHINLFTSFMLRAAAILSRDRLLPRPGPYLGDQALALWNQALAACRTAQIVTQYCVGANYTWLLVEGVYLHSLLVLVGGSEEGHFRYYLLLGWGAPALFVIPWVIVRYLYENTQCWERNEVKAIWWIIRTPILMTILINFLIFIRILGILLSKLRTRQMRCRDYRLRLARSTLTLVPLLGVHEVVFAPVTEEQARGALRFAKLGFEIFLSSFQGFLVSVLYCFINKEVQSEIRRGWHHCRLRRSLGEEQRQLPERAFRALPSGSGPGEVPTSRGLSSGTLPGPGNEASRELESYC
The test is described as follows: cAMP pharmacological functional assay in presence of casein, hGIPR. Type of test: cell-based. Particulars: HEK293 cells expressing hGIPR, 0.1% Casein, geometric mean; read-out: hGIPR cAMP Rel EC50 nM (SEM, n).

For a further test, the target named is T2, human Gcg receptor (Homo sapiens, UniProt P47871).
T2 construct: expressed in transfected cells; crude membranes
The test is described as follows: [125I]-Glucagon binding (SPA), human Gcg receptor. Particulars: read-out: hGLcgR Ki, nM (SEM, n). Summed up: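 Crude membranes from cells expressing the receptor, prepared by hypotonic lysis in 50 mM Tris HCl pH 7.5 with protease inhibitors, homogenization and differential centrifugation, were used in a WGA-bead SPA. Binding buffer: 25 mM HEPES pH 7.4, 2.5 mM CaCl2, 1 mM MgCl2, bacitracin, Tween-20.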

The target of test [2] is human GLP-1 receptor (GLP-1R) (Homo sapiens, UniProt P43220). Kind of test: cAMP pharmacological functional assay in presence of casein, hGLP-1R. Type of test: cell-based. The following applies: HEK293 cells expressing hGLP-1R, 0.1% Casein, geometric mean; read-out: hGLP1R cAMP Rel EC50 nM (SEM, n).
Another test addresses human GLP-1R (Homo sapiens, UniProt P43220). Kind of test: [125I]-GLP-1 binding (SPA), human GLP-1 receptor. More on the design: expressed in transfected cells; crude membranes. The following applies: read-out: hGLP1R Ki, (nM) (SEM, n). Summed up: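 Crude-membrane binding assay; one membrane prep included 1 mM MgCl2 and 25 units/ml DNAse I during lysis. Assay buffer at pH 7.4 contains 0.1% (w/v) bacitracin and 0.003% (w/v) TWEEN-20. Ki is reported as geometric mean.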

A further test concerns the target T3, human GIP receptor (Homo sapiens, UniProt P48546).
T3 construct: expressed in transfected cells; crude membranes
T3 sequence (P48546 22-466): T1 sequence (P48546 22-466)
Kind of test: [125I]-GIP binding (SPA), human GIP receptor. Particulars: read-out: hGIPR Ki, nM (SEM, n).

Numbered stars: 1 amine (or outer) side, 2 acyl side, 3 side chain; on linkers, the order of the positions; unused ones are H or OH. Square brackets hold non-standard residues; d marks the D form. Side chains are listed from the residue outwards. Peptide text beside a SMILES is read from it. * marks the point of attachment. C20 diacid = O=C(O)CCCCCCCCCCCCCCCCCCC(=O)*; γGlu = O=C(O)[C@H](CCC(=O)[*:2])N[*:1]; AEEA = NCCOCCOCC(=O)O; Aib = CC(C)(N)C(=O)O

EC50 and Ki data for five molecules are collected here from US12252524B2, “GIP/GLP1 co-agonist compounds” (Eli Lilly and Company, priority 2018, dated 2025).

human GLP-1R, sequence (P43220 24-463): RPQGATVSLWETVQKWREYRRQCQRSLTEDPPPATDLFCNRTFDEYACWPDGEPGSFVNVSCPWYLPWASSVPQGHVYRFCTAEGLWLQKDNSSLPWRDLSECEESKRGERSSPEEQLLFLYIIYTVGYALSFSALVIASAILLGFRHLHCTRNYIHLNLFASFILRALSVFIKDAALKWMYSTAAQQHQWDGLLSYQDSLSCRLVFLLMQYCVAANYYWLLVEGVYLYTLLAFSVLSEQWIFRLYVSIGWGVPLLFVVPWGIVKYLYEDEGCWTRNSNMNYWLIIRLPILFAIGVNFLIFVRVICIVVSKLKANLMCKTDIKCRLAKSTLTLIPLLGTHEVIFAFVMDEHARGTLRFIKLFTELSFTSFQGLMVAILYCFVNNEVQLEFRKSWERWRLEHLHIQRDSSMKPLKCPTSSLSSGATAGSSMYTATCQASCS
human GLP-1 receptor (GLP-1R), sequence (P43220 24-463): as above
T2 sequence (P47871 26-477): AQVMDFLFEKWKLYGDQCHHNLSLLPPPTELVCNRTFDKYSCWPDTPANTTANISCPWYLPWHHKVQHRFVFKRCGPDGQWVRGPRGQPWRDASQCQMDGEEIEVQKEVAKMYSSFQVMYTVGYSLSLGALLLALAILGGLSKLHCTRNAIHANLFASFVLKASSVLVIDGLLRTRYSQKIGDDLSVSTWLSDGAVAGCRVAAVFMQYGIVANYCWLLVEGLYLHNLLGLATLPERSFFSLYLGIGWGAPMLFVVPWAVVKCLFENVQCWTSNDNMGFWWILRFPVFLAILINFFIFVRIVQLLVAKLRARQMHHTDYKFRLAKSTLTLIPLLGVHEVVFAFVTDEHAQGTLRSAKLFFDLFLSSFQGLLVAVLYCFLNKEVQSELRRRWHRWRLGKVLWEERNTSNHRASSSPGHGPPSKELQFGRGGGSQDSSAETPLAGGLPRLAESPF

In the case of `CC[C@H](C)[C@H](NC(=O)[C@H](CCCCN)NC(=O)[C@H](CC(=O)O)NC(=O)[C@H](CC(C)C)NC(=O)[C@H](CC(C)C)NC(=O)[C@H](CCCCNC(=O)COCCOCCNC(=O)COCCOCCNC(=O)CC[C@H](NC(=O)CCCCCCCCCCCCCCCCCCC(=O)O)C(=O)O)NC(=O)[C@H](CO)NC(=O)[C@H](Cc1ccc(O)cc1)NC(=O)[C@H](CC(=O)O)NC(=O)[C@H](CO)NC(=O)[C@@H](NC(=O)[C@H](Cc1ccccc1)NC(=O)[C@@H](NC(=O)CNC(=O)[C@H](CCC(=O)O)NC(=O)C(C)(C)NC(=O)[C@@H](N)Cc1ccc(O)cc1)[C@@H](C)O)[C@@H](C)O)C(=O)N[C@@H](C)C(=O)N[C@@H](CCC(N)=O)C(=O)NC(C)(C)C(=O)N[C@@H](C)C(=O)N[C@@H](Cc1ccccc1)C(=O)N[C@H](C(=O)N[C@@H](CCC(=O)O)C(=O)N[C@@H](Cc1ccc(O)cc1)C(=O)N[C@@H](CC(C)C)C(=O)N[C@H](C(=O)N[C@@H](CCC(=O)O)C(=O)NCC(=O)NCC(=O)N1CCC[C@H]1C(=O)N[C@@H](CO)C(=O)N[C@@H](CO)C(=O)NCC(=O)N[C@@H](C)C(=O)N1CCC[C@H]1C(=O)N1CCC[C@H]1C(=O)N1CCC[C@H]1C(=O)N[C@@H](CO)C(N)=O)[C@@H](C)CC)[C@@H](C)CC` [Example 25] (H-Y[Aib]EGTFTSDYSK([AEEA-AEEA-γGlu-C20 diacid])LLDKIAQ[Aib]AFIEYLIEGGPSSGAPPPS-NH2), the EC50 (usually the concentration at which the effect is half-maximal) in test [1] turned out to be 0.23 nM; in test [2], 0.356 nM. Also, the figures for the Ki on human Gcg receptor, on human GLP-1R and on human GIP receptor were 81.1 nM, 4.8 nM and 0.179 nM, respectively.
In the case of `CC[C@H](C)[C@H](NC(=O)[C@H](CCCCN)NC(=O)[C@H](CC(=O)O)NC(=O)[C@H](CC(C)C)NC(=O)[C@H](CCCCNC(=O)COCCOCCNC(=O)COCCOCCNC(=O)CC[C@H](NC(=O)CCCCCCCCCCCCCCCCCCC(=O)O)C(=O)O)NC(=O)[C@@H](NC(=O)[C@H](CO)NC(=O)[C@H](Cc1ccc(O)cc1)NC(=O)[C@H](CC(=O)O)NC(=O)[C@H](CO)NC(=O)[C@@H](NC(=O)[C@H](Cc1ccccc1)NC(=O)[C@@H](NC(=O)CNC(=O)[C@H](CCC(=O)O)NC(=O)C(C)(C)NC(=O)[C@@H](N)Cc1ccc(O)cc1)[C@@H](C)O)[C@@H](C)O)[C@@H](C)CC)C(=O)N[C@@H](C)C(=O)N[C@@H](CCC(N)=O)C(=O)NC(C)(C)C(=O)N[C@@H](C)C(=O)N[C@@H](Cc1ccccc1)C(=O)N[C@H](C(=O)N[C@@H](CCC(=O)O)C(=O)N[C@@H](Cc1ccc(O)cc1)C(=O)N[C@@H](CC(C)C)C(=O)N[C@H](C(=O)N[C@@H](CCC(=O)O)C(=O)NCC(=O)NCC(=O)N1CCC[C@H]1C(=O)N[C@@H](CO)C(=O)N[C@@H](CO)C(=O)NCC(=O)N[C@@H](C)C(=O)N1CCC[C@H]1C(=O)N1CCC[C@H]1C(=O)N1CCC[C@H]1C(=O)N[C@@H](CO)C(N)=O)[C@@H](C)CC)[C@@H](C)CC` [Example 26] (H-Y[Aib]EGTFTSDYSIK([AEEA-AEEA-γGlu-C20 diacid])LDKIAQ[Aib]AFIEYLIEGGPSSGAPPPS-NH2), the EC50 in test [1] is 0.251 nM; in test [2], 0.293 nM. Besides, the Ki (usually a dissociation constant, usually derived from enzyme kinetics or from competition with a known ligand) was more than 960 nM on human Gcg receptor, 4.22 nM on human GLP-1R and 0.176 nM on human GIP receptor.
On the same counts, the results for `CC[C@H](C)[C@H](NC(=O)[C@H](CCCCN)NC(=O)[C@H](CC(=O)O)NC(=O)[C@H](CCCCNC(=O)COCCOCCNC(=O)COCCOCCNC(=O)CC[C@H](NC(=O)CCCCCCCCCCCCCCCCCCC(=O)O)C(=O)O)NC(=O)[C@H](CC(C)C)NC(=O)[C@@H](NC(=O)[C@H](CO)NC(=O)[C@H](Cc1ccc(O)cc1)NC(=O)[C@H](CC(=O)O)NC(=O)[C@H](CO)NC(=O)[C@@H](NC(=O)[C@H](Cc1ccccc1)NC(=O)[C@@H](NC(=O)CNC(=O)[C@H](CCC(=O)O)NC(=O)C(C)(C)NC(=O)[C@@H](N)Cc1ccc(O)cc1)[C@@H](C)O)[C@@H](C)O)[C@@H](C)CC)C(=O)N[C@@H](C)C(=O)N[C@@H](CCC(N)=O)C(=O)NC(C)(C)C(=O)N[C@@H](C)C(=O)N[C@@H](Cc1ccccc1)C(=O)N[C@H](C(=O)N[C@@H](CCC(=O)O)C(=O)N[C@@H](Cc1ccc(O)cc1)C(=O)N[C@@H](CC(C)C)C(=O)N[C@H](C(=O)N[C@@H](CCC(=O)O)C(=O)NCC(=O)NCC(=O)N1CCC[C@H]1C(=O)N[C@@H](CO)C(=O)N[C@@H](CO)C(=O)NCC(=O)N[C@@H](C)C(=O)N1CCC[C@H]1C(=O)N1CCC[C@H]1C(=O)N1CCC[C@H]1C(=O)N[C@@H](CO)C(N)=O)[C@@H](C)CC)[C@@H](C)CC` [Example 27] (H-Y[Aib]EGTFTSDYSILK([AEEA-AEEA-γGlu-C20 diacid])DKIAQ[Aib]AFIEYLIEGGPSSGAPPPS-NH2) are 0.0789 nM, 0.557 nM, 315 nM, 3.68 nM and 0.103 nM.
The corresponding values for `CC[C@H](C)[C@H](NC(=O)[C@H](CCCCN)NC(=O)[C@H](CCCCNC(=O)COCCOCCNC(=O)COCCOCCNC(=O)CC[C@H](NC(=O)CCCCCCCCCCCCCCCCCCC(=O)O)C(=O)O)NC(=O)[C@H](CC(C)C)NC(=O)[C@H](CC(C)C)NC(=O)[C@@H](NC(=O)[C@H](CO)NC(=O)[C@H](Cc1ccc(O)cc1)NC(=O)[C@H](CC(=O)O)NC(=O)[C@H](CO)NC(=O)[C@@H](NC(=O)[C@H](Cc1ccccc1)NC(=O)[C@@H](NC(=O)CNC(=O)[C@H](CCC(=O)O)NC(=O)C(C)(C)NC(=O)[C@@H](N)Cc1ccc(O)cc1)[C@@H](C)O)[C@@H](C)O)[C@@H](C)CC)C(=O)N[C@@H](C)C(=O)N[C@@H](CCC(N)=O)C(=O)NC(C)(C)C(=O)N[C@@H](C)C(=O)N[C@@H](Cc1ccccc1)C(=O)N[C@H](C(=O)N[C@@H](CCC(=O)O)C(=O)N[C@@H](Cc1ccc(O)cc1)C(=O)N[C@@H](CC(C)C)C(=O)N[C@H](C(=O)N[C@@H](CCC(=O)O)C(=O)NCC(=O)NCC(=O)N1CCC[C@H]1C(=O)N[C@@H](CO)C(=O)N[C@@H](CO)C(=O)NCC(=O)N[C@@H](C)C(=O)N1CCC[C@H]1C(=O)N1CCC[C@H]1C(=O)N1CCC[C@H]1C(=O)N[C@@H](CO)C(N)=O)[C@@H](C)CC)[C@@H](C)CC` [Example 28] (H-Y[Aib]EGTFTSDYSILLK([AEEA-AEEA-γGlu-C20 diacid])KIAQ[Aib]AFIEYLIEGGPSSGAPPPS-NH2) are 1.66 nM, 32.7 nM, more than 902 nM, 21.1 nM and 0.24 nM.
For the molecule `CC[C@H](C)[C@H](NC(=O)[C@H](CCCCNC(=O)COCCOCCNC(=O)COCCOCCNC(=O)CC[C@H](NC(=O)CCCCCCCCCCCCCCCCCCC(=O)O)C(=O)O)NC(=O)[C@H](CC(=O)O)NC(=O)[C@H](CC(C)C)NC(=O)[C@H](CC(C)C)NC(=O)[C@@H](NC(=O)[C@H](CO)NC(=O)[C@H](Cc1ccc(O)cc1)NC(=O)[C@H](CC(=O)O)NC(=O)[C@H](CO)NC(=O)[C@@H](NC(=O)[C@H](Cc1ccccc1)NC(=O)[C@@H](NC(=O)CNC(=O)[C@H](CCC(=O)O)NC(=O)C(C)(C)NC(=O)[C@@H](N)Cc1ccc(O)cc1)[C@@H](C)O)[C@@H](C)O)[C@@H](C)CC)C(=O)N[C@@H](C)C(=O)N[C@@H](CCC(N)=O)C(=O)NC(C)(C)C(=O)N[C@@H](C)C(=O)N[C@@H](Cc1ccccc1)C(=O)N[C@H](C(=O)N[C@@H](CCC(=O)O)C(=O)N[C@@H](Cc1ccc(O)cc1)C(=O)N[C@@H](CC(C)C)C(=O)N[C@H](C(=O)N[C@@H](CCC(=O)O)C(=O)NCC(=O)NCC(=O)N1CCC[C@H]1C(=O)N[C@@H](CO)C(=O)N[C@@H](CO)C(=O)NCC(=O)N[C@@H](C)C(=O)N1CCC[C@H]1C(=O)N1CCC[C@H]1C(=O)N1CCC[C@H]1C(=O)N[C@@H](CO)C(N)=O)[C@@H](C)CC)[C@@H](C)CC` [Example 29] (H-Y[Aib]EGTFTSDYSILLDK([AEEA-AEEA-γGlu-C20 diacid])IAQ[Aib]AFIEYLIEGGPSSGAPPPS-NH2), the figures for the EC50 in test [1] and in test [2] were 0.32 nM and 0.999 nM, respectively. The values for the Ki at human Gcg receptor, on human GLP-1R and at human GIP receptor were 132 nM, 8 nM and 0.377 nM, respectively.
